{"source": "patent US4764590A", "about": "“Des-19-leucine, 20-glutamine, 21-threonine-calcitonin” (Rorer Pharmaceutical Corporation, priority 1987, dated 1988)", "key": {"[1]": {"system": "serum calcium concentration", "experiment": "Biological assay of calcitonin analogs in vivo: reduction of serum calcium concentration, 2×2 parallel line assay", "conditions": "rats, subcutaneous injection, blood withdrawn 1 hour later, versus synthetic salmon calcitonin standard", "procedure": "Biological Assay of Calcitonin Analogs in Vivo\nThe biological potency of des-19-leucine, 20-glutamine, 21-threonine-salmoncalcitonin was determined by comparing the reduction of serum calcium concentration which followed administration by graded doses of des-Leu^19, Gln^20, Thr^21 -SCT and synthetic salmon calcitonin standard. Rats were divided into four groups of seven animals, and each group was assigned at random to a dose of standard or test solution. Low and high doses were chosen from the linear portion of the dose-response curve. For the salmon calcitonin standard, the values were 0.7 and 2.1 ng. peptide/100 g. body weight (BW). This dose approximates 3 and 9 MU/100 g. BW. Peptides were given by subcutaneous injection (0.2 ml/100 g. BW) and blood was withdrawn 1 hour later for serum calcium determination. Sera are processed and analyzed within two hours of collection. […]. Results were analyzed by a 2×2 parallel line assay [Gaddum, J. H., J. Pharm. Pharmacol., 6, 345 (1953)]. The standard salmon calcitonin used was independently determined to contain greater than 4,000 IU/mg. des-Leu^19, Gln^20, Thr^21 -SCT assayed at 7100 IU/mg."}, "[2]": {"conditions": "Monikawa et al., Experientia 32(9), 1104-1106 (1976); cited from earlier work"}, "[3]": {"system": "serum calcium concentration", "conditions": "standard used in the rat assay; cited from earlier work"}}, "note": "Where a SMILES comes first, the peptide text is derived from it."}
{"molecule": "CC(C)C[C@H](NC(=O)[C@H](CCCCN)NC(=O)CNC(=O)[C@H](CC(C)C)NC(=O)[C@@H](NC(=O)[C@@H]1CSSC[C@H](N)C(=O)N[C@@H](CO)C(=O)N[C@@H](CC(N)=O)C(=O)N[C@@H](CC(C)C)C(=O)N[C@@H](CO)C(=O)N[C@@H]([C@@H](C)O)C(=O)N1)C(C)C)C(=O)N[C@@H](CO)C(=O)N[C@@H](CCC(N)=O)C(=O)N[C@@H](CCC(=O)O)C(=O)N[C@@H](CC(C)C)C(=O)N[C@@H](Cc1c[nH]cn1)C(=O)N[C@@H](CCCCN)C(=O)N[C@@H](Cc1ccc(O)cc1)C(=O)N1CCC[C@H]1C(=O)N[C@@H](CCCNC(=N)N)C(=O)N[C@H](C(=O)N[C@@H](CC(N)=O)C(=O)N[C@H](C(=O)NCC(=O)N[C@@H](CO)C(=O)NCC(=O)N[C@H](C(=O)N1CCC[C@H]1C(N)=O)[C@@H](C)O)[C@@H](C)O)[C@@H](C)O", "note": "[des-Leu^19, Gln^20, Thr^21 -SCT, des-19-leucine, 20-glutamine, 21-threonine-salmon calcitonin] (HELM PEPTIDE1{C.S.N.L.S.T.C.V.L.G.K.L.S.Q.E.L.H.K.Y.P.R.T.N.T.G.S.G.T.P.[am]}$PEPTIDE1,PEPTIDE1,1:R3-7:R3$$$V2.0)", "values": [{"measurement": "biological potency (reduction of serum calcium concentration)", "setting": "[1]", "result": 7100, "unit": "IU/mg"}]}
{"molecule": "(1,7-alpha-L-amino-suberic acid) eel calcitonin", "values": [{"measurement": "hypocalcemic potency", "setting": "[2]", "result": "about 3400 IU/mg."}]}
{"molecule": "Salmon calcitonin [standard salmon calcitonin]", "values": [{"measurement": "potency of the standard salmon calcitonin, independently determined", "setting": "[3]", "result": "greater than 4,000 IU/mg"}]}
{"molecule": "eel calcitonin [synthetic eel calcitonin]", "values": [{"measurement": "hypocalcemic potency", "setting": "[2]", "result": "around 4300 IU/mg."}]}
